Data published in publication PMC9515143, “Phosphorylation of Jhd2 by the Ras-cAMP-PKA(Tpk2) pathway regulates histone modifications and autophagy” (Nature Communications, 2022).
Where a SMILES comes first, the peptide text is derived from it. The star is where a group is joined. Cbz = O=C(OCc1ccccc1)*

Legend:
[1] = test system: H3K4me3; experiment: Western blot of H3K4me3 in yeast cells treated with glucose, 2-DG, FBP or pyruvate; type: cell-based, budding yeast (Saccharomyces cerevisiae); conditions: for H3K4me3 level after FBP or pyruvate treatment: spheroplasts (Zymolase), different concentrations of FBP or pyruvate, 3 hr
Description: To examine the effect of glucose on histone modifications, we grew yeast cells in 2% glucose-containing medium (YPD) until log phase. Cells were collected and then grown in the medium containing different concentrations of glucose for 0.5 hr.
PKA is activated by cyclic AMP (cAMP), which binds to its inhibitory subunit, Bcy1 and causes its dissociation (Fig. 1g). We thus examined H3K4me3 in deletion mutants of cAMP phosphodiesterases PDE1 and PDE2, which encode enzymes to hydrolyze cAMP and inactivate PKA[39],[40]. […] To test whether the Ras-cAMP-PKA pathway mediates glucose-induced H3K4me3, we examined H3K4me3 in ras1Δ and ras2Δ mutants. […] Ras1/2 can be activated by glycolysis-derived fructose-1,6-biphosphate (FBP) via Cdc25[6] (Fig. 1g).
To examine the effect of glucose on histone modifications, yeast cells were grown in 2% glucose-containing YPD (Yeast Extract Peptone Dextrose) medium until OD600 of 0.7–1.0. Cells were then collected, washed and resuspended in YP medium for 3 hr followed by treatment with different concentrations of glucose for 0.5 hr. For 1NM-PP1 (MCE, HY-13804) treatment, cells were grown in 2% YPD until OD600 of 0.7–1.0. Cells were then treated with 25 μM 1NM-PP1 for 0.5 hr. For FBP and pyruvate treatment, cells were pre-treated with Zymolase (Mpbio, 08320921) to increase the permeability. In brief, cells were grown in YPD medium until OD600 of 0.7–1.0, centrifuged and resuspended in 1 ml SB buffer (100 mM Sorbitol, 20 mM Tris pH 7.4). 10 μl Zymolase was then added and incubated at 30 °C for 15 min. The spheroplasts were washed and cultured in YPD medium containing different concentrations of FBP and pyruvate for 3 hr.
(§1) Cells were grown in 5 ml YPD or selective medium until OD600 of 0.7–1.0. Cells were harvested and lysed in alkaline lysis buffer (2 M NaOH, 8% 2-mercaptoethanol). After centrifugation, the protein pellet was resuspended in 150 μl 2×SDS-sample buffer. Protein samples were separated by 8–15% SDS-PAGE and transferred to PVDF membrane. The blots were probed with primary antibodies followed by incubation with horseradish peroxidase-labelled IgG secondary antibodies. The protein bands were visualized using the ECL Chemiluminescence Detection Kit (Bio-Rad, 170–5061) and quantified with Image J software (v.1.8.0).

[2] = target: T1, WT Jhd2 (Saccharomyces cerevisiae, UniProt P47156); experiment: Jhd2 protein level in WT Jhd2 cells with MG132; type: cell-based, budding yeast (Saccharomyces cerevisiae); conditions: for Jhd2/GAPDH: WT +MG132, WT without MG132 = 1, Figure 5c
T1 construct: 3xFLAG (C); made in house; host or cells: Saccharomyces cerevisiae BY4741, genomic JHD2-3xFLAG::KAN
Procedure: (§2) To determine how Tpk2-mediated Jhd2 phosphorylation regulates Jhd2 stability, we treated WT Jhd2 and Jhd2-S321A, S340A cells with MG132, the proteasome inhibitor. […] We also examined Jhd2 in a temperature-sensitive proteasome-deficient mutant (cim3-1), which is defective in ATPase activity of 26 S proteasome.
as §1

[3] = target: T2, Jhd2-S321A, S340A (Saccharomyces cerevisiae, UniProt P47156, S321A/S340A); experiment: Jhd2 protein level in Jhd2-S321A, S340A cells with MG132; type: cell-based, budding yeast (Saccharomyces cerevisiae); conditions: for Jhd2/GAPDH: Jhd2-S321A,S340A +MG132, Figure 5c
T2 construct: 3xFLAG (C); made in house; host or cells: Saccharomyces cerevisiae BY4741, genomic JHD2 S321A S340A-3xFLAG
T2 sequence (P47156 whole entry S321A/S340A): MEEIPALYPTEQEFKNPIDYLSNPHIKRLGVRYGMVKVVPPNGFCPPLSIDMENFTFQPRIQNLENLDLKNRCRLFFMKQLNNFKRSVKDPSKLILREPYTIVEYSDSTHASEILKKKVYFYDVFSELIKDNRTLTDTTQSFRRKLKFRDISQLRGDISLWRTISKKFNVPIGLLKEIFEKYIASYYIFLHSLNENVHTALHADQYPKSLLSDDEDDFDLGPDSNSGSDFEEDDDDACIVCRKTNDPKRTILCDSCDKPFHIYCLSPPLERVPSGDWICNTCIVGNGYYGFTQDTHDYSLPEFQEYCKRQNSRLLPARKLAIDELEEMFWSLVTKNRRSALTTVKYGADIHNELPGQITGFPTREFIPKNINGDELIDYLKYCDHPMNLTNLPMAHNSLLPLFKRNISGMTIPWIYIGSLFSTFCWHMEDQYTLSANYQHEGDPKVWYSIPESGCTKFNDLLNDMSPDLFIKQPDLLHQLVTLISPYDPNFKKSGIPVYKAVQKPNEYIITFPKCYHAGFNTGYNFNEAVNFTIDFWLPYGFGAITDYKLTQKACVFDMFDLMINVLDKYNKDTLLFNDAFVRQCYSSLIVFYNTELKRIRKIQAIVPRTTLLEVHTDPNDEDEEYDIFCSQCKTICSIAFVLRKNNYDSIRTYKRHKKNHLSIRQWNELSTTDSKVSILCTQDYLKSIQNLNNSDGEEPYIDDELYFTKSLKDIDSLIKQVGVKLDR
Procedure: as §2, §1

[4] = target: Rpd3 (UniProt P32561); experiment: in vivo co-IP, Western blot; conditions: reference: WT Jhd2; sites S321,S340
[5] = target: histone H3 1-23 (UniProt P61830); experiment: biotinylated peptide pull-down, Western blot; conditions: reference: WT Jhd2; sites S321,S340
[6] = target: histone H3 1-23 (UniProt P61830); experiment: biotinylated peptide pull-down, Western blot; conditions: reference: WT Jhd2; sites S321,S340; remark: listed apart in the source
[7] = target: histone H3 1-23 (UniProt P61830); experiment: biotinylated peptide pull-down, Western blot; conditions: reference: WT Jhd2; sites S321,S340; remark: listed apart in the source
[8] = target: T3, Jhd2-FLAG (S. cerevisiae (budding yeast), UniProt P47156 1-728, phosphoserine at 321 and 340 (phosphorylated in vivo by Tpk2; extent not stated)); experiment: co-IP; yeast whole cell extract digested with MNase, anti-FLAG M2 agarose 1 hr 4 °C, washed with 350 mM NaCl, 0.1% NP-40, Western blots; WT and tpk2Δ cells; conditions: partners not purified
T3 construct: Jhd2, JmjC domain-containing H3K4 demethylase of budding yeast; tag integrated at the genomic locus; this is named in the assay format or readout; also called WT Jhd2; FLAG-purified Jhd2; not shown: FLAG, C-terminal, kept
T3 sequence (looked up): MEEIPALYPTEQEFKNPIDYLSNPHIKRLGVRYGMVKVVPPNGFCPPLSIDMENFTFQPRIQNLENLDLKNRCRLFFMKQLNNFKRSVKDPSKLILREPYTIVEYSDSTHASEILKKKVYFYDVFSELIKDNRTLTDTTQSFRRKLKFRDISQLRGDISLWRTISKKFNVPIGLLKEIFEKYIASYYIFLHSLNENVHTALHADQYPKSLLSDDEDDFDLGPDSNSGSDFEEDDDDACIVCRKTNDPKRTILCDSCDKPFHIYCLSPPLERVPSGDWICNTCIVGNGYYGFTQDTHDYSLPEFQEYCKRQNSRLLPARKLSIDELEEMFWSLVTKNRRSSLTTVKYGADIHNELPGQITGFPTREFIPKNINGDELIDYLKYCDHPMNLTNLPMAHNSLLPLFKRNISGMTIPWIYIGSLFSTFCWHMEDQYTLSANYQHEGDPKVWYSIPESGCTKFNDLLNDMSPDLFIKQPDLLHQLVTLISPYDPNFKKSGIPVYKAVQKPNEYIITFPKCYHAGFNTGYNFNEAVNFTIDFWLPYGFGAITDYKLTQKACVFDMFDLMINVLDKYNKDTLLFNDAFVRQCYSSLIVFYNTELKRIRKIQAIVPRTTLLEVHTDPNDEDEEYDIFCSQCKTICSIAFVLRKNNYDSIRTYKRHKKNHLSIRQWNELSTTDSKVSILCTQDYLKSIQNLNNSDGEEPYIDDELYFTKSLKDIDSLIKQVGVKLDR

[9] = target: T4, Tpk2-phosphorylated Jhd2-FLAG (S. cerevisiae (budding yeast), UniProt P47156 1-728, phosphoserine at 321 and 340 (by purified Tpk2 in vitro)); experiment: co-IP; in vitro: dephosphorylated Jhd2 immobilized on anti-FLAG beads, incubated with or without purified Tpk2, Tpk2 removed, then incubated with purified Not4; conditions: both partners purified
T4 construct: Jhd2 of budding yeast, phosphorylated in vitro by Tpk2 at S321 and S340; also called immobilized phosphorylated Jhd2; not shown: FLAG, C-terminal, kept
T4 sequence (looked up): T3 sequence (looked up)

## O=CC[C@@H](O)[C@H](O)[C@H](O)CO [2-DG, 2-Deoxy-D-glucose]
[1]; 2-DG
  H3K4me3 level after blocking glycolysis: significantly reduced H3K4me3

## O=C(COP(=O)(O)O)[C@@H](O)[C@H](O)[C@H](O)COP(=O)(O)O [FBP, fructose-1,6-biphosphate]
[1]
  H3K4me3 level after FBP or pyruvate treatment: increased H3K4me3 in a dose-dependent manner

## CC(C)C[C@@H](C=O)NC(=O)[C@H](CC(C)C)NC(=O)[C@H](CC(C)C)NC(=O)OCc1ccccc1 [MG132] (Cbz-Leu-Leu-Leu-aldehyde)
[2]; MG132, Western blot
  Jhd2 protein level, WT Jhd2: significantly increased WT Jhd2 protein levels
[2]; replicate 1
  Jhd2/GAPDH: 1.233
[2]; replicate 2
  Jhd2/GAPDH: 1.396
[2]; replicate 3
  Jhd2/GAPDH: 1.451
[2]; replicate 4
  Jhd2/GAPDH: 1.135
[3]; WT without MG132 = 1, Jhd2-S321A,S340A without MG132 = 1.51305, replicate 4
  Jhd2/GAPDH: 2.104
[3]; WT without MG132 = 1, Jhd2-S321A,S340A without MG132 = 1.6488, replicate 2
  Jhd2/GAPDH: 1.451
[3]; WT without MG132 = 1, Jhd2-S321A,S340A without MG132 = 1.64948, replicate 1
  Jhd2/GAPDH: 1.2682
[3]; WT without MG132 = 1, Jhd2-S321A,S340A without MG132 = 1.95118, replicate 3
  Jhd2/GAPDH: 2.131
[3]; MG132, Western blot
  Jhd2 protein level, Jhd2-S321A, S340A: had no significant effect on Jhd2-S321A, S340A protein level

## CC(=O)C(=O)O [pyruvate]
[1]
  H3K4me3 level after FBP or pyruvate treatment: FBP but not pyruvate treatment increased H3K4me3

## Jhd2 (from UniProt P47156) Jhd2-S321A, S340A
[4]
  binding against the reference: stronger
[5]
  binding against the reference: stronger
[6]
  binding against the reference: stronger
[7]
  binding against the reference: stronger

B1: Not4 (enzyme, S. cerevisiae (budding yeast), UniProt P34909 1-587, looked up)
chain: MMNPHVQENLQAIHNALSNFDTSFLSEDEEDYCPLCIEPMDITDKNFFPCPCGYQICQFCYNNIRQNPELNGRCPACRRKYDDENVRYVTLSPEELKMERAKLARKEKERKHREKERKENEYTNRKHLSGTRVIQKNLVYVVGINPPVPYEEVAPTLKSEKYFGQYGKINKIVVNRKTPHSNNTTSEHYHHHSPGYGVYITFGSKDDAARCIAQVDGTYMDGRLIKAAYGTTKYCSSYLRGLPCPNPNCMFLHEPGEEADSFNKRELHNKQQAQQQSGGTAFTRSGIHNNISTSTAGSNTNLLSENFTGTPSPAAMRAQLHHDSHTNAGTPVLTPAPVPAGSNPWGVTQSATPVTSINLSKNSSSINLPTLNDSLGHHTTPTTENTITSTTTTTNTNATSHSHGSKKKQSLAAEEYKDPYDALGNAVDFLDARLHSLSNYQKRPISIKSNIIDEETYKKYPSLFSWDKIEASKKSDNTLANKLVEILAIKPIDYTASVVQFLQSVNVGVNDNITITDNTKTPTQPIRLQTVSQQIQPPLNVSTPPPGIFGPQHKVPIQQQQMGDTSSRNSSDLLNQLINGRKIIAGN
notes: Not4, E3 ubiquitin ligase of budding yeast; also called purified Not4; source: S. cerevisiae
[8]
  binding result: binds
[9]
  binding result: binds
